Experimental data taken from the supplement of paper PMC10307832.

Tests used:
Experiment in all cases: relative viability (nuclei count vs DMSO), 5 days (fraction); higher = more cells survive
[1] = compound: NCC(=O)Nc1ccc(-n2nc(C(F)(F)F)cc2-c2ccc3c(ccc4ccccc43)c2)cc1 + N=C(N)NC(=N)NCCc1ccccc1 [Phenformin] (partner 250 µM)
In short: (§1)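 Lung cancer cell lines were seeded in 1536-well plates and dosed by pin tool the next day, with either a single drug or a fixed anchor-drug dose combined with five library-drug doses (not always all listed) spaced in √10 steps. Five days later, one step fixed the cells and stained their nuclei (final 0.05% Triton X-100, 1% formaldehyde, 1 ug/ml Hoechst), and nuclei were counted on 4× images. Relative viability is the nuclei count in treated wells divided by the count in vehicle wells, and each value is the median of duplicate plates.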

kb NB 142-70 + AZD7762 = compound: C1CSC2=C(C(=O)N1)SC3=C2C=C(C=C3)O [kb NB 142-70] + NC(=O)Nc1cc(-c2cccc(F)c2)sc1C(=O)N[C@H]1CCCNC1 [AZD7762] (partner 0.2 µM)
In short: as §1

[2] = compound: NCC(=O)Nc1ccc(-n2nc(C(F)(F)F)cc2-c2ccc3c(ccc4ccccc43)c2)cc1 + O=C(c1cc(Cc2n[nH]c(=O)c3ccccc23)ccc1F)N1CCN(C(=O)C2CC2)CC1 [Olaparib] (partner 8 µM)
In short: as §1

[3] = compound: C1CSC2=C(C(=O)N1)SC3=C2C=C(C=C3)O [kb NB 142-70] + CCNC(=O)c1noc(-c2cc(C(C)C)c(O)cc2O)c1-c1ccc(CN2CCOCC2)cc1 [Luminespib] (partner 0.01 µM)
In short: as §1

[4] = compound: C1CSC2=C(C(=O)N1)SC3=C2C=C(C=C3)O [kb NB 142-70] + CC(=O)Nc1cccc(-n2c(=O)n(C3CC3)c(=O)c3c(Nc4ccc(I)cc4F)n(C)c(=O)c(C)c32)c1 [Trametinib] (partner 0.02 µM)
In short: as §1

Cell Line | relative viability ([1]; first compound 0.02 µM) | relative viability ([1]; first compound 0.06325 µM) | relative viability ([1]; first compound 0.2 µM) | relative viability ([1]; first compound 0.6325 µM) | relative viability ([1]; first compound 2 µM) | relative viability (kb NB 142-70 + AZD7762; first compound 0.1 µM) | relative viability (kb NB 142-70 + AZD7762; first compound 1 µM) | relative viability (kb NB 142-70 + AZD7762; first compound 3.162 µM) | relative viability ([2]; first compound 0.02 µM) | relative viability ([2]; first compound 0.06325 µM) | relative viability ([2]; first compound 0.2 µM) | relative viability ([2]; first compound 0.6325 µM) | relative viability ([2]; first compound 2 µM) | relative viability ([3]; first compound 0.1 µM) | relative viability ([3]; first compound 1 µM) | relative viability ([3]; first compound 3.162 µM) | relative viability ([4]; first compound 0.1 µM) | relative viability ([4]; first compound 1 µM) | relative viability ([4]; first compound 3.162 µM)
201T | 0.448 | 0.489 | 0.408 | 0.466 | 0.446 | 0.603 | 0.723 | 0.676 | 0.867 | 0.868 | 0.856 | 0.879 | 0.844 | 1.04 | 1.03 | 1.08 | 0.687 | 0.727 | 0.752
A549 | 0.0913 | 0.168 | 0.0781 | 0.198 | 0.17 | – | – | – | 0.294 | 0.291 | 0.339 | 0.29 | 0.239 | – | – | – | – | – | –
A-427 | – | 0.411 | 0.315 | 0.334 | 0.352 | 0.783 | 0.93 | 1.08 | 0.701 | 0.742 | 0.679 | 0.776 | 0.781 | 0.845 | 1.12 | 0.584 | 0.841 | 0.764 | 0.726
ABC-1 | 0.248 | 0.233 | – | 0.225 | 0.245 | 0.936 | 0.927 | 0.758 | 0.594 | 0.671 | – | 0.921 | 0.78 | 0.536 | 0.487 | 0.336 | – | – | –
BEN | 0.249 | 0.239 | 0.302 | 0.269 | 0.228 | 0.727 | 0.623 | 0.531 | 1 | 1.23 | 0.993 | 1.21 | 1.03 | 0.412 | 1.13 | 0.281 | 1.02 | 0.99 | 0.892
CAL-12T | 0.572 | 0.601 | 0.586 | 0.576 | 0.627 | 0.548 | 0.718 | 0.704 | 0.761 | 0.735 | 0.659 | 0.711 | 0.765 | 0.56 | 0.611 | 0.25 | 0.341 | 0.39 | 0.241
COR-L23 | 0.394 | 0.434 | 0.439 | 0.44 | 0.417 | – | – | – | 0.368 | 0.368 | 0.352 | 0.393 | 0.366 | 0.665 | 0.524 | 0.159 | 0.558 | 0.588 | 0.32
COR-L 105 | 0.408 | 0.517 | 0.5 | 0.539 | 0.492 | – | – | – | 0.696 | 0.772 | 0.75 | 0.766 | 0.638 | 0.603 | 0.634 | 0.712 | 0.452 | 0.426 | 0.448
Calu-6 | – | – | – | – | – | – | – | – | 0.568 | 0.578 | 0.553 | 0.562 | 0.571 | – | – | – | – | – | –
ChaGo-K-1 | 0.438 | 0.495 | 0.443 | 0.522 | 0.519 | 0.896 | 0.873 | 0.888 | 0.443 | 0.488 | 0.388 | 0.443 | 0.405 | 0.664 | 0.638 | 0.448 | 0.883 | 0.875 | 0.876
